Reference: patent US20140303198A1, “AGENT FOR INHIBITING EXPRESSION OF NPC1L1 AND/OR LIPG MRNA AND AGENT FOR PREVENTING AND/OR TREATING OBESITY” (KOWA COMPANY, LTD., priority 2011, published 2014)

Columns and labels:
[1] = test system: NPC1L1 mRNA; assay: DNA microarray gene expression profile in HepG2 cells (Test Example 2), NPC1L1; assay type: cell-based, human; conditions: 24 hours, treated vs untreated cells
Description: (§1) A compound of a test compound group was added to cells of a human hepatocellular carcinoma cell line HepG2, and the cells were then cultured for 24 hours. Thereafter, the gene expression profile was measured using the DNA microarray of Agilent. Specifically, the HepG2 cells were inoculated at a concentration of 2×10^5 cells/well into a 24-well plate, and were then cultured overnight. Thereafter, Compound 2 was dissolved in dimethyl sulfoxide (DMSO) to give concentrations of 1 μM and 10 μM, whereas Anacetrapib was dissolved in DMSO to give a concentration of […]. The thus prepared solution was added to the culture fluid in an amount of 1/1000-fold of the culture fluid. The cells were cultured at 37° C. for 24 hours in a CO2 incubator. Thereafter, 500 μL of ISOGEN (Nippon Gene Co., Ltd., Catalog No. 31-02501) was added to the culture, and total RNA was then extracted. Cy3-labeled cRNA was synthesized from 200 ng of the RNA using Low Input Quick Amp Labeling Kit (Agilent, Catalog No. 5190-2308). The synthesized Cy3-labeled cRNA was hybridized to Whole Human Genome (4×44K) (Agilent, Catalog No. G4110F), using GE Hybridization Buffer HI-RPM (Agilent, Catalog No. 5190-0403). After completion of the hybridization, the DNA microarray was washed with Gene Expression Wash Buffer (Agilent, Catalog No. 5188-5327), and data were then scanned with a scanner (Agilent).
(§2) The analysis was carried out using GeneSpring (Agilent), and the change rate of the expression level of each gene was calculated.
(§3) (Change rate)=(Expression level of each gene in cells treated with compound)[…](Expression level of each gene in cells untreated with compound)

[2] = test system: LIPG mRNA; assay: DNA microarray gene expression profile in HepG2 cells (Test Example 2), LIPG; assay type: cell-based, human; conditions: 24 hours, treated vs untreated cells
Description: as §1, §2, §3

CCN(C[C@H]1CC[C@H](CC(=O)O)CC1)c1ccc(C(F)(F)F)cc1CN(c1ncc(OCCS(C)(=O)=O)cn1)[C@@H](C)c1cc(C(F)(F)F)cc(C(F)(F)F)c1 [Compound 2, (S)-(−)-trans-{4-[({2-[({1-[3,5-bis(trifluoromethyl)phenyl]ethyl}{5-[2-(methylsulfonyl)ethoxy]pyrimidin-2-yl}amino)methyl]-4-(trifluoromethyl)phenyl}(ethyl)amino)methyl]cyclohexyl}ac etic acid]
Change rate (fold) of NPC1L1 expression level ([1]; 1 μM): −2.3 fold | Change rate (fold) of NPC1L1 expression level ([1]; 10 μM): −3.1 fold | Change rate (fold) of LIPG expression level ([2]; 1 μM): −2.5 fold | Change rate (fold) of LIPG expression level ([2]; 10 μM): −6.2 fold

COc1cc(F)c(C(C)C)cc1-c1ccc(C(F)(F)F)cc1CN1C(=O)O[C@H](c2cc(C(F)(F)F)cc(C(F)(F)F)c2)[C@@H]1C [Anacetrapib, (4S,5R)-5-[3,5-bis(trifluoromethyl)phenyl]-3-((4′-fluoro-5′-isopropyl-2′-methoxy-4-(trifluoromethyl)-[1,1′-biphenyl]-2-yl)methyl)-4-methyloxazolidin-2-one, reference compound]
Change rate (fold) of NPC1L1 expression level ([1]; 10 μM): −1.5 fold | Change rate (fold) of LIPG expression level ([2]; 10 μM): −1.9 fold
